In series [1] the target is T. cruzi cathepsin L-like protease (cruzain) (Trypanosoma cruzi, UniProt P25779). In words: biochemical. Here is the method: IC50 Determinations. Inhibitors were screened for effectiveness against the T. cruzi cathepsin L-like protease (cruzain) using purified recombinant protein. Cruzain (1 nM) was incubated with 20-50000 nM inhibitor in 100 mM sodium acetate-5 mM DTT buffer (pH 5.50, buffer A) for 5 min at room temperature. […] The increase in fluorescence (excitation at 355 nm and emission at 460 nm) was followed with an automated microtiter plate spectrofluorimeter (Molecular Devices, spectraMAX Gemini). Inhibitor stock solutions were prepared at 20 mM in DMSO, and serial dilutions were made in DMSO (0.7% DMSO in assay). Controls were performed using enzyme alone and enzyme with DMSO. IC50 values were determined graphically using inhibitor concentrations in the linear portion of a plot of inhibition versus log [I] (seven concentrations were tested, and at least two were in the linear range).
Chain of T. cruzi cathepsin L-like protease (cruzain) (P25779 123-467): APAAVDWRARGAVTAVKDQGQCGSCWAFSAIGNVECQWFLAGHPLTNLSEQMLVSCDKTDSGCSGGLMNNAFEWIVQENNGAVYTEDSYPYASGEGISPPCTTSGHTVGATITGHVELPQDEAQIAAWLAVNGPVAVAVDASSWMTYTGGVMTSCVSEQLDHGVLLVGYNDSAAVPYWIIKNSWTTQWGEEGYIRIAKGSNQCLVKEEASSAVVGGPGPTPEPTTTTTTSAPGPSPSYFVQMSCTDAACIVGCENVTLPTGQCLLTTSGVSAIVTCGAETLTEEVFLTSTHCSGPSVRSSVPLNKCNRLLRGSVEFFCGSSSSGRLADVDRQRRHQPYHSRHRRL

The test system of another series is T. cruzi (Y strain). In words: Anti-trypanosomal cell culture assay, T. cruzi-infected J774 macrophages. In kind it is cell-based. Conditions: inhibitor 10 μM, cultures up to 30 days. Here is the method:
Drug Screening in Cell Culture. Mammalian cells are routinely cultured in RPMI-1640 medium supplemented with 5-10% heat-inactivated fetal calf serum (FCS) at 37° C. in 5% CO2. The Y strain of T. cruzi is maintained by serial passage in bovine embryo skeletal muscle (BESM) cells. Infectious trypomastigotes are collected from culture supernatants. For drug assays, J774 macrophages were irradiated (5000 rad) and plated onto six-well tissue culture plates 24 h prior to infection with ˜106 trypomastigotes/well. […] Inhibitor stocks (10 mM) in DMSO were stored at 4° C. J774 monolayers treated with a blank containing DMSO are used as a negative control, and monolayers treated with a known trypanocidal inhibitor, 10 μM N-methyl piperazine-Phe-homoPhe-vinyl sulfone phenyl (N-Pip-F-hF-VSPh) acted as a positive control (Engel et al., J. Exp. Med., 188:725-734 (1998)). RPMI medium with or without inhibitor is replaced every 48 h. Cultures are maintained for up to 30 days and monitored daily by contrast phase microscopy. […] The comparative effectiveness of each inhibitor was estimated from plots of the duration of the intracellular cycle of T. cruzi (days) in treated vs untreated control wells.

In a further series the target is cruzain (Trypanosoma cruzi, UniProt P25779). In kind it is biochemical. Conditions: incubation 90 s to 24 h. Here is the method: The time dependence of inhibition was determined by incubating cruzain with inhibitors, DMSO, or enzyme alone at room temperature for time points between 90 s and 24 h. The enzymatic activity was determined as above.
Chain of cruzain (P25779 123-467): as above
A known irreversible inhibitor, K002 (morpholino urea-Phe-homoPhe-vinyl sulfone benzene; Axys Pharmaceuticals Inc., South San Francisco, Calif.), and a known reversible covalent inhibitor, leupeptin, were used as controls for the thio semicarbazones.

The mark [2] stands for this setting: 5 min incubation, room temperature, pH 5.50, read-out: IC50 against cruzain.

The structures appear in SMILES notation. Where two headings read alike, the source gives them in different places.

As a reminder, the melting point is the temperature, or range, at which the solid turns liquid. As a reminder, the IC50 is the midpoint of a concentration-inhibition curve.

For the compound `CCC(=NNC(N)=S)c1ccc2cc(OC)ccc2c1` [Compound 1k, 6′-Methoxy-2′-propiononaphthone Thio Semicarbazone], the melting point fell in the range of 170.5 to 171.2 °C. Same read-out and setting: for `CN(C)c1ccc(C=NNC(N)=S)c2ccccc12` [Compound 1l, 4-Dimethylamino-1-naphthaldehyde Thio Semicarbazone] the value was 170.5 to 171.2 °C. The same measure, in the same setting: to `Cn1cc(C=NNC(N)=S)c2ccccc21` [Compound 1m, 1-Methylindole-3-carboxaldehyde Thio Semicarbazone] belongs 200.3 to 201.2 °C.

Take `CCC(=NNC(N)=S)c1cccc(Cl)c1` [Compound 2a, 3′-Chloropropiophenone Thio Semicarbazone]: the concentration for half-maximal inhibition (IC50) in series [1] was determined as 220 nM. For the same compound, in the series with T. cruzi (Y strain), the “effect on T. cruzi in cell culture (trypanocidal / trypanostatic / inactive)” value was “trypanocidal”.

As to `CCC(=NNC(N)=S)c1cccc(C(F)(F)F)c1` [Compound 2b, 3′-Trifluoromethylpropiophenone Thio Semicarbazone], the “cruzain inhibitory activity, in words” value in series [1] is reported as “better IC50 values than 1i”. The IC50 in series [1] (setting [2]) is 50 nM. For the same compound, the “effect on T. cruzi in cell culture (trypanocidal / trypanostatic / inactive)” value in the series on T. cruzi (Y strain) was “trypanocidal”. Take `CCC(=NNC(N)=S)c1cccc(F)c1` [Compound 2c, 3′-Fluoropropiophenone Thio Semicarbazone]: the melting point is 138.8 to 139.5 °C. The compound `CCC(=NNC(N)=S)c1ccccc1` [Compound 2d, Propiophenone Thio Semicarbazone] yielded a melting point of 116.8 to 117.9 °C. Further, the “drop / loss of activity compared to 1i (cruzain)” value in series [1] (compared to 1i) is reported as “at least 2 orders of magnitude”.

For `CCC(=NNC(N)=S)c1ccc(Br)cc1` [Compound 2e, 4′-Bromopropiophenone Thio Semicarbazone], the melting point was in the range of 171.3 to 173 °C. In the case of `CCC(=NNC(N)=S)c1ccc(Cl)cc1` [Compound 2f, 4′-Chloropropiophenone Thio Semicarbazone], the melting point lay within 175.1 to 176.8 °C. In the case of `CCC(=NNC(N)=S)c1ccc(OC)cc1` [Compound 2g, 4′-Methoxypropiophenone Thio Semicarbazone], the melting point was in the range of 117.8 to 119.8 °C. Turning to `CCC(=NNC(N)=S)c1cc(C(F)(F)F)cc(C(F)(F)F)c1` [Compound 2h, 3′,5′-bis(trifluoromethyl)propiophenone Thio Semicarbazone], the “cruzain inhibitory activity, in words” value in series [1] is on record as “better IC50 values than 1i”. The 50% inhibitory concentration (IC50) in series [1] (setting [2]) amounted to 20 nM. Also, the “increase in activity over 1i (cruzain)” value in series [1] (compared to 1i) is listed as about 5 fold. Consider `CCC(=NNC(N)=S)c1ccc(Cl)cc1Cl` [Compound 2j, 2′,4′-Dichloropropiophenone Thio Semicarbazone], for which the melting point lay in the range of 171.8 to 173 °C.

Turning to `CC(=NNC(N)=S)c1ccccc1Br` [Compound 2l, 2′-Bromoacetophenone Thio Semicarbazone], the melting point was in the range of 144.5 to 146.2 °C. The same measure, in the same setting: for `CC(=NNC(N)=S)c1ccccc1Cl` [Compound 2m, 2′-Chloroacetophenone Thio Semicarbazone] the value was 155.8 to 156.7 °C; for `NC(=S)NN=Cc1ccccc1C(F)(F)F` [Compound 2p, 2-Trifluoromethylbenzaldehyde Thio Semicarbazone], 248.3 to 249.4 °C. For `NC(=S)NN=Cc1cccc(Br)c1` [Compound 3a, 3-Bromobenzaldehyde Thio Semicarbazone], the concentration for half-maximal inhibition (IC50) in series [1] (setting [2]) was found to be 1300 nM. For the same compound, on cruzain, the “time dependence of cruzain inhibition” value is “time-dependent”. With `CC(=NNC(N)=S)c1cccc(C(F)(F)F)c1` [Compound 3d, 3-Trifluoromethylacetophenone Thio Semicarbazone], the “effect on T. cruzi in cell culture (trypanocidal / trypanostatic / inactive)” value in the series with T. cruzi (Y strain) was “trypanostatic”. Take `CC(=NNC(N)=S)c1cc(C(F)(F)F)cc(C(F)(F)F)c1` [Compound 3f, 3′,5′-Bis(trifluoromethyl)acetophenone Thio Semicarbazone]: in series [1], the “cruzain inhibitory activity, in words” value is recorded as “better IC50 values than 1i”. In addition, in the series with T. cruzi (Y strain), the “effect on T. cruzi in cell culture (trypanocidal / trypanostatic / inactive)” value was “trypanostatic”. The matching figures for `CC(=NNC(N)=S)c1ccc(Cl)c(Cl)c1` [Compound 3h, 3′,4′-Dichloroacetophenone Thio Semicarbazone]: “better IC50 values than 1i” and “trypanocidal”. `NC(=S)N1CCC(c2cccc(Br)c2)=N1` [Compound 4a, 3-(3-Bromophenyl)-2-pyrazoline-1-thiocarboxamide] registered a melting point of 172.9 to 174.5 °C. Besides, the “decrease in activity as compared to 1i (cruzain)” value in series [1] (compared to 1i) is 2 fold. At cruzain, the “time dependence of cruzain inhibition” value is reported as “time-dependent”. For `NC(=S)N1CCC(c2cccc(Cl)c2)=N1` [Compound 4c, 3-(3-Chlorophenyl)-2-pyrazoline-1-thiocarboxamide], in the series on T. cruzi (Y strain), the “effect on T. cruzi in cell culture (trypanocidal / trypanostatic / inactive)” value was “inactive”.

In the case of `CC1CN(C(N)=S)N=C1c1cccc(Cl)c1` (stereo not shown) [Compound 4d, 3-(3-Chlorophenyl)-4-methyl-2-pyrazoline-1-thiocarboxamide], the melting point was 131.3 °C (dec.). Further, the “effect on T. cruzi in cell culture (trypanocidal / trypanostatic / inactive)” value with T. cruzi (Y strain) was “trypanocidal”.

Compound `NC(=S)N1CCC(c2ccc(Cl)c(Cl)c2)=N1` [Compound 4e, 3-(3,4-Dichlorophenyl)-2-pyrazoline-1-thiocarboxamide] displayed a melting point of 199.3 to 201.4 °C. In addition, the “cruzain inhibitory activity, in words” value in series [1] is on record as “better than that of 1i”. In the series with T. cruzi (Y strain), the “effect on T. cruzi in cell culture (trypanocidal / trypanostatic / inactive)” value is “trypanocidal”. For `NC(=S)N1CCC(c2cccc(C(F)(F)F)c2)=N1` [Compound 4g, 3-(3-Trifluoromethylphenyl)-2-pyrazoline-1-thiocarboxamide], the melting point was 159.2 to 161.1 °C. In addition, the “cruzain inhibitory activity, in words” value in series [1] is listed as “better than that of 1i”. In addition, the “effect on T. cruzi in cell culture (trypanocidal / trypanostatic / inactive)” value in the series with T. cruzi (Y strain) was “inactive”. `CC1CN(C(N)=S)N=C1c1cccc(C(F)(F)F)c1` (stereo not shown) [Compound 4h, 3-(3-Trifluoromethylphenyl)-4-methyl-2-pyrazoline-1-thiocarboxamide] returned a melting point of 120.8 to 121.9 °C. For the same compound, in series [1], the “cruzain inhibitory activity, in words” value is “better than that of 1i”. Moreover, the “effect on T. cruzi in cell culture (trypanocidal / trypanostatic / inactive)” value with T. cruzi (Y strain) was “trypanocidal”. In turn, `CCC(=NN(SC)C(N)=O)c1cccc(Br)c1` [Compound 5a, 3′-Bromopropiophenone N-Methyl Thio Semicarbazone] registered a melting point of 156.6 to 158 °C. With `S=C(Nc1cccc(Cl)c1)N1CCC(c2cccc(Br)c2)=N1` [Compound 5d, 3-(3-Bromophenyl)-2-pyrazoline-1-(IL3-chlorophenyl)thiocarboxamide], the melting point fell in the range of 197.5 to 198.8 °C. Moreover, the half-maximal inhibitory concentration (IC50) in series [1] (setting [2]) lay within 1000 to 2000 nM. Besides, the “effect on T. cruzi in cell culture (trypanocidal / trypanostatic / inactive)” value in the series with T. cruzi (Y strain) is recorded as “no effect on the parasites”. As for `FC(F)(F)c1cccc(NC(=S)N2CCC(c3cccc(Cl)c3)=N2)c1` [Compound 5e, 3-(3-Chlorophenyl)-2-pyrazoline-1-(N-3-tri-fluoromethylphenyl)thiocarboxamide], the “time dependence of cruzain inhibition” value at cruzain is “showed time dependency”.

The compound `CCCCCCNC(=S)N1CCC(c2cccc(Br)c2)=N1` [Compound 5f, 3-(3-Bromophenyl)-2-pyrazoline-1-(N-hexyl)-thiocarboxamide] showed a melting point of 117 to 118.2 °C. In addition, the IC50 in series [1] (setting [2]) lay in the range of 1000 to 2000 nM.

Compound `CC(=NNC(N)=O)c1cccc(Br)c1` [Compound 6b, 3′-Bromoacetophenone Semicarbazone] came in with a melting point of 229.3 to 231.3 °C. Consider `NC(=O)NN=Cc1ccc(-c2cccc(Cl)c2)o1` [Compound 6c, 5-(3-Chlorophenyl)-2-furancarboxaldehyde Semicarbazone], for which the melting point lay in the range of 192.1 to 194.8 °C. Consider `CCC(NNC(N)=S)c1cccc(Br)c1` (stereo not shown) [Compound 7a, 1-(3′-bromophenyl)propylaminothiourea], for which the “cruzain inhibitory activity, in words” value in series [1] was “poor activity”. For the same compound, on cruzain, the “time dependence of cruzain inhibition” value is given as “showed time dependency”. As for `CC(=O)N[C@@H](CC(C)C)C(=O)N[C@@H](CC(C)C)C(=O)N[C@H](C=O)CCCNC(=N)N` [leupeptin, reference compound], the “time dependence of cruzain inhibition” value at cruzain is recorded as “rapidly time-dependent”.
